The record followed here is ChEMBL document CHEMBL4350991, “Design, synthesis, and biological evaluation of rutacecarpine derivatives as multitarget-directed ligands for the treatment of Alzheimer's disease” (Eur J Med Chem, 2019).

A word on the IC50: it is the concentration that inhibits the measured activity by half. Read a low IC50 as inhibition by little substance. What is called logD is lipophilicity at a set pH, counting ionised and neutral species. A higher logD goes with a more lipophilic compound. For orientation: viability means a read-out of living cells in per cent, often relative to untreated cells. The low end stands for a greater loss of cells, the high end for better survival.

SMILES strings stand for the structures.

The target in one data set is Acetylcholinesterase (Electrophorus electricus, UniProt O42275). The format is ADME.
Data set [1] can be described thus: n-Octanol-phosphate buffer partition co-efficient, log P of compound at pH 7.4 incubated for 48 hrs by UV spectrophotometry-based shake-flask method. The format is physicochemical.
The test system of data set [2] is PC-12. Kind of data set: cells. Particulars: Rattus norvegicus. The format is functional.
In data set [3] the test system is PC-12. Kind of data set: cells. The format is functional. The following applies: Rattus norvegicus. The source holds these as a separate data set.
For data set [4], the system named is PC-12. Kind of data set: cells. The format is functional. Particulars: Rattus norvegicus. The source holds these as a separate data set.
Data set [5] has as its system PC-12. Put plainly: cells. The format is functional. Particulars: Rattus norvegicus. This is another data set of the same source.
The subject of data set [6] is PC-12. Kind of data set: cells. The format is functional. The following applies: Rattus norvegicus. The source holds these as a separate data set.
The subject of data set [7] is PC-12. Put plainly: Neuroprotective activity against H2O2 induced cytotoxicity in rat PC12 cells assessed as increase in cell viability pretreated for 3 hrs followed by H2O2 challenge measured after 24 hrs by MTT assay. The format is functional, cell-based.
The target of the next data set is Cholinesterase (Equus caballus, UniProt P81908).
Sequence of Cholinesterase (P81908 whole entry): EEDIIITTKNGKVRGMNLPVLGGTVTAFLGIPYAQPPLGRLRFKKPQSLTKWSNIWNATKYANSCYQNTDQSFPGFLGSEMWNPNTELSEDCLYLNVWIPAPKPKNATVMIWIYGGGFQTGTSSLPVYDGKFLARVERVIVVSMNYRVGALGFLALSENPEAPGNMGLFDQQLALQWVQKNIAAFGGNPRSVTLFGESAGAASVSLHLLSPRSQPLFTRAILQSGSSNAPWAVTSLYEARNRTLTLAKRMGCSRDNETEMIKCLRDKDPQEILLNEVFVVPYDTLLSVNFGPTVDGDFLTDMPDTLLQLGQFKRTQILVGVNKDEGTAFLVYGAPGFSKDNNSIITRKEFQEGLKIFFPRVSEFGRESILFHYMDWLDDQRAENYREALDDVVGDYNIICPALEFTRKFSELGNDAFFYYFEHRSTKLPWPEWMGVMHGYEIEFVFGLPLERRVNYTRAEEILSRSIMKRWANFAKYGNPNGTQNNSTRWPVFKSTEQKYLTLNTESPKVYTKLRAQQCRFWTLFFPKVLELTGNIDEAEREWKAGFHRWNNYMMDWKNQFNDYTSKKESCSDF

Sequence of Acetylcholinesterase (O42275 whole entry): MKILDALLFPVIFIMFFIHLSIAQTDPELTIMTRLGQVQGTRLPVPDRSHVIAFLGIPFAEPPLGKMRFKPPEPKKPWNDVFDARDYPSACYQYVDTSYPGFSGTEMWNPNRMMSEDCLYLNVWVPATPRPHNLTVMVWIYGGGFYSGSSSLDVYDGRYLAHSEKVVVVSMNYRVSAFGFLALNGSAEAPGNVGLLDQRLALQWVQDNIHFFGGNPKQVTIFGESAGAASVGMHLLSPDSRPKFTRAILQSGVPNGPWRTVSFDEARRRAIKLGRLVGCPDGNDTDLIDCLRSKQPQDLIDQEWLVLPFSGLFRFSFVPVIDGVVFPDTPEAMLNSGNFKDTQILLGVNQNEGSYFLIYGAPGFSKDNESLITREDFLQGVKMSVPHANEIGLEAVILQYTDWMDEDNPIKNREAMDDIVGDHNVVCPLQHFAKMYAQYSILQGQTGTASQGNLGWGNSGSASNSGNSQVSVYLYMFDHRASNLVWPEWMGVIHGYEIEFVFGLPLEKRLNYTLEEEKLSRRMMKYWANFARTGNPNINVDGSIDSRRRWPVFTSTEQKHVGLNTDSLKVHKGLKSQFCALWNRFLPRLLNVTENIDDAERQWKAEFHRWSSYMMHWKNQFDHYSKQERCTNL
Description for Acetylcholinesterase: Inhibition of electric eel AChE using acetylthiocholine iodide as substrate preincubated for 30 mins followed by substrate addition and measured after 30 mins by Ellman's method

With `O=c1c2cc(NS(=O)(=O)c3ccc(OC(F)(F)F)cc3)ccc2nc2n1CCc1c-2[nH]c2ccccc12`, the IC50 was determined as 34.6 µM against Acetylcholinesterase and 3.95 µM against Cholinesterase. The compound further showed a logD at 48 h in data set [1] of 3.62. Besides, the viability at 1 µM in the data set with PC-12 [2] was 51.6%. Moreover, the viability at 5 µM in the data set on PC-12 [3] was 55.9%. Moreover, the viability at 10 µM with PC-12 [4] was 60.1%. The compound further registered a viability at 30 µM in the data set with PC-12 [5] of 61.8%. This compound registered a viability at 50 µM in the data set with PC-12 [6] of 63.8%. Further, the Activity result with PC-12 [7] is “Dose-dependent effect”.

Take `O=c1c2cc(NS(=O)(=O)c3ccc(F)cc3)ccc2nc2n1CCc1c-2[nH]c2ccccc12`: the IC50 at Acetylcholinesterase was above 100 µM; at Cholinesterase, 7.57 µM. The same compound returned a logD at 48 h in [1] of 2.25. Further, the viability at 1 µM in the data set on PC-12 [2] was 41.9%. The viability at 5 µM with PC-12 [3] stood at 44.7%. The compound further showed a viability at 10 µM in the data set with PC-12 [4] of 45.5%. The viability at 30 µM in the data set with PC-12 [5] worked out at 46.6%. The compound also came in with a viability at 50 µM in the data set on PC-12 [6] of 51.8%.

In the case of `O=c1c2cc(NS(=O)(=O)c3ccc(Br)s3)ccc2nc2n1CCc1c-2[nH]c2ccccc12`, the values for the IC50 at Acetylcholinesterase and at Cholinesterase were 83.4 µM and 60.3 µM, respectively. The same compound displayed a logD at 48 h in [1] of 2.91. Further, the viability at 1 µM in the data set on PC-12 [2] is 52%. This compound also had a viability at 5 µM with PC-12 [3] of 52.3%. The viability at 10 µM in the data set on PC-12 [4] is 55.1%. The same compound returned a viability at 30 µM in the data set on PC-12 [5] of 56.2%. The same compound had a viability at 50 µM with PC-12 [6] of 58.2%. Further, the Activity entry in the data set with PC-12 [7] is “Dose-dependent effect”.

As to `O=c1c2cc(NS(=O)(=O)c3ccc(C(F)(F)F)cc3)ccc2nc2n1CCc1c-2[nH]c2ccccc12`, the results for the IC50 against Acetylcholinesterase and against Cholinesterase were above 100 µM and 8.28 µM, respectively. Moreover, in [1], the logD at 48 h came out at 3.01. Moreover, the viability at 1 µM in the data set on PC-12 [2] was determined as 43.6%. The viability at 5 µM in the data set on PC-12 [3] was determined as 54.9%. Also, the viability at 10 µM in the data set with PC-12 [4] stood at 56.1%. In the data set on PC-12 [5], this compound registered a viability at 30 µM of 56.5%. In the data set with PC-12 [6], this compound returned a viability at 50 µM of 60.1%. Further, the Activity result in the data set with PC-12 [7] was “Dose-dependent effect”.

In the case of `COc1ccc(S(=O)(=O)Nc2ccc3nc4n(c(=O)c3c2)CCc2c-4[nH]c3ccccc23)cc1OC`, the results for the half-maximal inhibitory concentration (IC50) at Acetylcholinesterase and against Cholinesterase were 51.2 µM and 10.9 µM, respectively. This compound had a viability at 1 µM in the data set with PC-12 [2] of 40.4%. The viability at 5 µM with PC-12 [3] is 44%. In the data set on PC-12 [4], the viability at 10 µM was determined as 45.2%. Also, in the data set with PC-12 [5], the viability at 30 µM amounted to 47.7%. Besides, the viability at 50 µM in the data set with PC-12 [6] is 51%.

On to `O=c1c2cc(NS(=O)(=O)c3ccc(Br)cc3)ccc2nc2n1CCc1c-2[nH]c2ccccc12`, for which the IC50 came to 40.4 µM on Acetylcholinesterase and 8.94 µM at Cholinesterase. The same compound came in with a viability at 1 µM with PC-12 [2] of 39.9%. In addition, in the data set with PC-12 [3], the viability at 5 µM amounted to 41.8%. Moreover, the viability at 10 µM in the data set on PC-12 [4] amounted to 44.1%. Further, the viability at 30 µM in the data set with PC-12 [5] amounted to 45.4%. Further, in the data set with PC-12 [6], the viability at 50 µM stood at 47.6%.

As for `CC(=O)c1ccc(S(=O)(=O)Nc2ccc3nc4n(c(=O)c3c2)CCc2c-4[nH]c3ccccc23)cc1`, the IC50 at Acetylcholinesterase is above 100 µM; against Cholinesterase, 25.8 µM. In the data set with PC-12 [2], this compound registered a viability at 1 µM of 46.7%. In the data set with PC-12 [3], this compound showed a viability at 5 µM of 48%. The compound also showed a viability at 10 µM in the data set with PC-12 [4] of 54.4%. In addition, the viability at 30 µM with PC-12 [5] was 57.7%. Further, the viability at 50 µM with PC-12 [6] was 59.8%. Further, in the data set with PC-12 [7], the Activity result was “Dose-dependent effect”.

Consider `O=c1c2cc(NS(=O)(=O)c3cccc(C(F)(F)F)c3)ccc2nc2n1CCc1c-2[nH]c2ccccc12`, for which the concentration for half-maximal inhibition (IC50) was above 100 µM at Acetylcholinesterase and 3.82 µM against Cholinesterase. This compound displayed a logD at 48 h in data set [1] of 3.01. This compound also registered a viability at 1 µM in the data set on PC-12 [2] of 49.1%. Further, the viability at 5 µM with PC-12 [3] was 50.7%. The compound further showed a viability at 10 µM with PC-12 [4] of 53.2%. Also, the viability at 30 µM in the data set on PC-12 [5] was found to be 53.5%. This compound had a viability at 50 µM with PC-12 [6] of 55.9%.

For the compound `O=c1c2cc(NS(=O)(=O)c3c(Cl)cccc3Cl)ccc2nc2n1CCc1c-2[nH]c2ccccc12`, the results for the IC50 on Acetylcholinesterase and at Cholinesterase were 100 µM and 13.7 µM, respectively. The same compound came in with a viability at 1 µM in the data set on PC-12 [2] of 40.7%. Moreover, the viability at 5 µM in the data set on PC-12 [3] amounted to 42.1%. Further, the viability at 10 µM in the data set on PC-12 [4] is 42.9%. For the same compound, the viability at 30 µM with PC-12 [5] was 45.4%. In the data set on PC-12 [6], this compound registered a viability at 50 µM of 48.3%.
